Measured values published in the NIST ThermoML archive (doi:10.1016/j.fluid.2011.11.005).

Assay: excess molar enthalpy (molar enthalpy of mixing); xn = mol fraction of the nth substance listed
Conditions: 101 kPa, Liquid, Flow calorimetry

C=CCCCC [hex-1-ene] + CCCCOCCCC
excess molar enthalpy [kcal/mol]
Conditions | 298.15 K | 313.15 K
x2 = 0.0503 | -0.000741 | -0.001
x2 = 0.1001 | -0.00139 | –
x2 = 0.15 | – | -0.00296
x2 = 0.1501 | -0.00258 | –
x2 = 0.2 | -0.0033 | -0.00382
x2 = 0.25 | -0.00402 | -0.00447
x2 = 0.2997 | – | -0.00497
x2 = 0.2998 | -0.00452 | –
x2 = 0.3502 | -0.00488 | –
x2 = 0.3503 | – | -0.0054
x2 = 0.3994 | -0.00519 | –
x2 = 0.3995 | – | -0.00566
x2 = 0.4502 | -0.00533 | –
x2 = 0.4503 | – | -0.00581
x2 = 0.4995 | -0.00543 | –
x2 = 0.4997 | – | -0.00586
x2 = 0.5494 | -0.00533 | –
x2 = 0.5495 | – | -0.00578
x2 = 0.5996 | -0.00511 | –
x2 = 0.5997 | – | -0.00557
x2 = 0.6491 | -0.0048 | –
x2 = 0.6493 | – | -0.00521
x2 = 0.7001 | -0.00437 | –
x2 = 0.7002 | – | -0.00468
x2 = 0.7491 | -0.00382 | –
x2 = 0.7492 | – | -0.00425
x2 = 0.7995 | -0.00296 | –
x2 = 0.7996 | – | -0.00361
x2 = 0.8501 | -0.00232 | -0.00284
x2 = 0.8996 | -0.00155 | -0.00203
x2 = 0.9504 | -0.000717 | -0.00108

CC1CCCCC1 [methylcyclohexane] + CCCCO
excess molar enthalpy [kcal/mol]
Conditions | 298.15 K | 313.15 K
x1 = 0.0498 | 0.0151 | 0.0212
x1 = 0.1 | 0.0301 | 0.0424
x1 = 0.1505 | 0.0449 | 0.0629
x1 = 0.2005 | 0.0588 | 0.0826
x1 = 0.2506 | 0.0725 | –
x1 = 0.2507 | – | 0.101
x1 = 0.3 | 0.0852 | 0.119
x1 = 0.3502 | 0.0974 | 0.135
x1 = 0.4002 | 0.109 | 0.15
x1 = 0.45 | – | 0.163
x1 = 0.4501 | 0.119 | –
x1 = 0.5006 | – | 0.174
x1 = 0.5007 | 0.127 | –
x1 = 0.5497 | 0.134 | 0.182
x1 = 0.6004 | 0.138 | 0.188
x1 = 0.6505 | 0.14 | 0.19
x1 = 0.6999 | 0.14 | –
x1 = 0.7 | – | 0.189
x1 = 0.7498 | 0.136 | 0.184
x1 = 0.7999 | 0.129 | –
x1 = 0.8 | – | 0.176
x1 = 0.8504 | 0.118 | 0.162
x1 = 0.8997 | 0.104 | 0.144
x1 = 0.9505 | 0.0814 | 0.112

CC1CCCCC1 [methylcyclohexane] + CCCCOCCCC
excess molar enthalpy [kcal/mol]
Conditions | 298.15 K | 313.15 K
x2 = 0.0497 | 0.0055 | 0.00497
x2 = 0.1003 | 0.0103 | 0.00908
x2 = 0.1501 | 0.0137 | 0.0126
x2 = 0.1997 | 0.0165 | –
x2 = 0.1998 | – | 0.0153
x2 = 0.2501 | 0.0189 | 0.0175
x2 = 0.3002 | 0.0207 | 0.0193
x2 = 0.3499 | 0.0218 | –
x2 = 0.35 | – | 0.0203
x2 = 0.3993 | 0.0225 | –
x2 = 0.3994 | – | 0.0211
x2 = 0.45 | 0.0228 | –
x2 = 0.4501 | – | 0.0215
x2 = 0.4993 | 0.0226 | 0.0213
x2 = 0.5499 | 0.022 | –
x2 = 0.55 | – | 0.0207
x2 = 0.5999 | 0.021 | –
x2 = 0.6 | – | 0.0197
x2 = 0.6491 | 0.0196 | –
x2 = 0.6492 | – | 0.0184
x2 = 0.6997 | 0.0177 | 0.0168
x2 = 0.7493 | 0.0156 | 0.0147
x2 = 0.8002 | 0.0131 | 0.0123
x2 = 0.8501 | 0.0103 | 0.00966
x2 = 0.9001 | 0.00707 | 0.00674
x2 = 0.95 | 0.00356 | –
x2 = 0.9501 | – | 0.00339
